Assay results: patent US20120321729A1, “NUTRITIONAL FORMULA FOR MANAGING CHRONIC OBSTRUCTIVE PULMONARY DISEASE (COPD) AND LUNG HEALTH” (priority 2011, published 2012)
Like-named read-outs stand apart in the source and are kept apart here.

How the values were obtained:
[1] = test system: inducible nitric oxide synthase; details: Zhang H S, Wang S Q Biochem Pharmacol. 2007; cited from earlier work
[2] = test system: Nrf2 (nuclear factor erythroid 2-related factor 2); details: "It has been shown" (related art); cited from earlier work
[3] = test system: primary rat tracheal epithelial cells; details: a chemical found in tobacco smoke, previously disclosed; cited from earlier work
[4] = test system: lipopolysaccharide-induced injury (lungs); details: mice; cited from earlier work
[5] = test system: lipopolysaccharide-induced injury (lungs); details: rats; cited from earlier work
heme oxygenase 1 = details: Zhang H S, Wang S Q Biochem Pharmacol. 2007; cited from earlier work
[6] = test system: Nrf2 (nuclear factor erythroid 2-related factor 2); experiment: Alteration of regulatory elements of oxidative stress and inflammation (Nrf2); details: "We and others have observed"

Cc1coc2c1C(=O)C(=O)c1c-2ccc2c1CCCC2(C)C [Tanshinone IIA]
suppression of the induction of inducible nitric oxide synthase [1]: suppressor of the induction | effect on regulatory elements involved in oxidative stress and inflammation such as Nrf2 [2]: alters regulatory elements | protection of primary rat tracheal epithelial cells from benzopyrene [3]: protects | protection of lungs from lipopolysaccharide-induced injury [4]: protects lungs | protection of lungs from lipopolysaccharide-induced injury [5]: protects lungs | induction of heme oxygenase 1 (heme oxygenase 1): inducer | effect on regulatory elements involved in oxidative stress and inflammation such as Nrf2 [6]: alters regulatory elements
